Entries after “also recorded” stand apart in the source; their conditions may differ.
Legend:
[1] = test system: Porphyromonas gingivalis; experiment: Planktonic MIC; type: cell-based, Porphyromonas gingivalis (ATCC 33277); conditions: Compound A alone; 24 hours
Method: (§1) The MIC (minimum inhibitory concentration) for the compound was determined for each organism shed from the biofilm during the challenge incubation. The MIC was defined as the minimum concentration that inhibits growth of the organism.

[2] = test system: Aggregibcater actynomycetemcomitans; experiment: Growth inhibition, LOG10 reduction; type: cell-based, Aggregibcater actynomycetemcomitans (ATCC 43717)
Method: (§2) Using a cryogenic stock (at −70° C.), a first sub-culture of the bacterial organisms listed above was streaked out on an organism specific agar (OSA). The bacterium was incubated at appropriate growth conditions for 24-48 hours and the plate was stored wrapped in parafilm at 4° C. for the aerobic strain (Aggregibcater actynomycetemcomitans) and 21° C. in the anaerobic chamber for anaerobic strain (Porphyromonas gingivalis). From the first sub-culture, a second sub-culture was streaked out on OSA. It was incubated at appropriate growth conditions for 24-48 hours. The second sub-culture was used within 24 hours starting from the time it was first removed from incubation. Using the second sub-culture, an isolated colony was aseptically removed from the OSA plate and inoculated into 100 mL of sterile bacterial liquid growth broth. The latter was incubated at 150 rpm at appropriate growth conditions for 24-24 hour. This yielded a viable bacterial density of approximately 10^9 CFU/mL and was checked by serial dilution and plating. The inoculum was adjusted to an approximate cell density of 10^6 CFU/mL by diluting in organism specific broth (OSB). The diluted organism was vortexed for approximately 10 seconds to achieve uniform mixing of the organism. One sample (100 μL) of the diluted organism was used for an inoculum check by serially diluting and spot plating on OSA in triplicate. It should be noted that for the anaerobic microorganism, growth, sonication, serial dilution, transfer and recovery of the organism was performed under anaerobic conditions (5% H2, 10% CO2, 85% N2).
(§3) Biofilms were tested using the specified contact times. Callenge plates were used for testing the killing activity of the tested biocidic compounds on formed biofilm and other plates to test the inhibitory effect of biofilm formation. SC wells served as sterility controls for each experiment. One challenge plate was used per growth condition and challenge time. GC is the growth control. GCh is the biofilm Growth Check.
(§4) Using a sterile 96-well microtitre plate the following was done aseptically to set up the above challenge plates. 200 μL of sterile OSM was added to wells that served as the device sterility control for the media and for biofilm growth checks. 200 μL of sterile neutralizer was added to wells that served as the neutralizer toxicity control. 100 μL of the neutralizer and 100 μL of each of the tested compounds or combinations were added to wells serving as neutralizer affectivity control. 200 μL of biocide stock solution was added to wells which served as the biocide diluent sterility control. Serial dilutions of the tested compounds and combinations in the diluents (OSM) were performed. Each freshly prepared challenge plate was aseptically covered and left to stand at room temperature for 30 minutes to equilibrate prior to use.
(§5) Following sonication of all plates, 100 μL was placed from each well of the MBEC™ plate into the first 12 empty wells of the first row of a 96 well-micro titer plate. 180 μL of sterile 0.9% saline were placed in the remaining rows. A Serial dilution (10^0-10^−7) was performed by moving 20 μL down each of the 8 rows. 10 μL were removed from each well and spot plated on prepared OSA plates. Plates were incubated at 37±1° C. and counted after approximately 24-48 hours of incubation. The data obtained was evaluated as Log 10 CFU/peg. 100 μL of the sterile neutralizer were placed in each well of the recovery plate to top up the volume back to 200 μL.
(§6) LOG10 Reduction=Mean LOG10 Growth Control−Mean LOG10 Test.

[3] = test system: Aggregibcater actynomycetemcomitans; experiment: Biofilm MBEC; type: cell-based, Aggregibcater actynomycetemcomitans (ATCC 43717); conditions: Compound A alone
Method: (§7) MBEC is defined as the minimum concentration of test compound that inhibits growth of the biofilm. The recovery plate prepared according to the description above was incubated at 37° C. for 24 hours and read visually to determine MBEC values. A microtiter plate reader was used to obtain optical density measurements at 630 nm (OD630). Clear wells (OD630<0.1) ware evidence of biofilm eradication.

[4] = test system: Aggregibcater actynomycetemcomitans; experiment: Planktonic minimum bactericidal concentration (MBC); type: cell-based, Aggregibcater actynomycetemcomitans (ATCC 43717); conditions: Compound A alone; 24 hours contact
Method: (§8) After the specified contact time (24 hours), 20 μL from each well of the challenge plate were removed and placed into the corresponding wells of a fresh 96 well Nunc plate containing 180 μL OSM. The plate was incubated at 37° C. for 24 hours.

[5] = test system: Porphyromonas gingivalis; experiment: Pre-formed biofilm challenge, MBEC P&G assay, LOG10 reduction; type: cell-based, Porphyromonas gingivalis (ATCC 33277)
Method: (§9) Sterile MBEC™ P&G plates coated with Hydroxyapatite were used for biofilm growth. The plates consist of plastic lids with 96 protruding polystyrene pegs that have each been coated with hydroxyapatite and a corresponding 96 well base into which the inoculum is placed. The bacterial inoculum for each plate is 150 μL in each well (Innovotech Inc., Edmonton, Alberta, Canada).
as §2
(§10) Each bacterial over-night culture was diluted 1,000× in its specific OSM. Using a micro pipette, 150 μL of inoculum was added to the appropriate wells of a 96 well plate, except for wells that served as sterility controls (SC). Sterility control wells received sterile OSB. The HA MBEC™ P&G lid was then inserted into the 96-well bottom. It should be noted that the volume of inoculum used in this step has been calibrated such that the biofilm covers a surface area that is immersed, entirely, by the volume of antimicrobials used in the challenge plate set up. The device was placed on the gyrorotary shaker in a humidified incubator and incubated at 110 rpm at the appropriate growth conditions. Porphyromonas gingivalis was incubated for 24 hours, and Aggregibcater actynomycetemcomitans was incubated for 48 hours. A triplicate sample of the inoculum was serially diluted (ten-fold). The latter served as controls used to verify the starting cell number in the inoculum. The serial 10-fold dilutions of the inoculum from 10^−7 to 10^0 were spot plated on an appropriately labeled series of agar plates. The spot plates were incubated for an appropriate period of time and scored for growth.
(§11) The biofilm growth check (GCh) pegs were broken off from the challenge plate with flamed pliers. Each peg was placed into 200 μL of neutralizer in row A of serial dilution plate. The plates were sonicated for 30 minutes. Then serial dilution and spot plating on OSA was performed, which served as a biofilm growth check.
(§12) Biofilms were tested using the specified contact times. Callenge plates were used for testing the killing activity of the tested biocidic compounds on formed biofilm and other plates to test the inhibitory effect of biofilm formation. SC wells served as sterility controls for each experiment. One challenge plate was used per growth condition and challenge time. GC is the growth control. GCh is the biofilm Growth Check. […]

[6] = test system: Porphyromonas gingivalis; experiment: Growth inhibition, LOG10 reduction; type: cell-based, Porphyromonas gingivalis (ATCC 33277)
Method: as §2, §3, §4, §5, §6

[7] = test system: Aggregibcater actynomycetemcomitans; experiment: Planktonic MIC; type: cell-based, Aggregibcater actynomycetemcomitans (ATCC 43717); conditions: Compound A alone; 24 hours
Method: as §1

[8] = test system: Porphyromonas gingivalis; experiment: Biofilm MBEC; type: cell-based, Porphyromonas gingivalis (ATCC 33277); conditions: Compound A alone
Method: as §7

[9] = test system: Porphyromonas gingivalis; experiment: Planktonic minimum bactericidal concentration (MBC); type: cell-based, Porphyromonas gingivalis (ATCC 33277); conditions: Compound A alone; 24 hours contact
Method: as §8

[10] = test system: Aggregibcater actynomycetemcomitans; experiment: Pre-formed biofilm challenge, MBEC P&G assay, LOG10 reduction; type: cell-based, Aggregibcater actynomycetemcomitans (ATCC 43717)
Method: as §9, §2, §10, §11, §12

[11] = Compound A, all tested concentrations

CC(=O)N[C@@H](CS)C(=O)O [Compound A, N-acetyl cysteine]
MIC Cut-off, P. gingivalis [1]: >20% | Log Reduction, Growth Inhibition, A.a. ([2]; Compound A 0.15%): 0.24 log | Log Reduction, Growth Inhibition, A.a. ([2]; Compound A 0.31%): 0.28 log | Log Reduction, Growth Inhibition, A.a. ([2]; Compound A 0.62%): 0.74 log | Log Reduction, Growth Inhibition, A.a. ([2]; Compound A 1.25%): 1.04 log | Log Reduction, Growth Inhibition, A.a. ([2]; Compound A 2.50%): 1.13 log | Log Reduction, Growth Inhibition, A.a. ([2]; Compound A 5%): 2.05 log | Log Reduction, Growth Inhibition, A.a. ([2]; Compound A 10%): 6.34 log | Log Reduction, Growth Inhibition, A.a. ([2]; Compound A 20%): 6.34 log | Inhibiting growth of A.a. (in words) ([2]; Compound A, only at 20% and 10% of the stock concentration): effective at inhibiting growth | MBEC Cut-off, A.a. [3]: >20% | MBC Cut-off, A.a. [4]: >20% | Log Reduction, Biofilm, P. gingivalis ([5]; Compound A 0.15%): 0.11 log | Log Reduction, Biofilm, P. gingivalis ([5]; Compound A 0.31%): 0.07 log | Log Reduction, Biofilm, P. gingivalis ([5]; Compound A 0.62%): −0.07 log | Log Reduction, Biofilm, P. gingivalis ([5]; Compound A 1.25%): −0.18 log | Log Reduction, Biofilm, P. gingivalis ([5]; Compound A 2.50%): 0.13 log | Log Reduction, Biofilm, P. gingivalis ([5]; Compound A 5%): −0.18 log | Log Reduction, Biofilm, P. gingivalis ([5]; Compound A 10%): −0.17 log | Log Reduction, Biofilm, P. gingivalis ([5]; Compound A 20%): 0.13 log | Reducing preformed biofilm of P. gingivalis (in words) [5, 11]: ineffective; also recorded: No inhibition or biofilm reduction | Log Reduction, Growth Inhibition, P. gingivalis ([6]; Compound A 0.15%): −0.89 log | Log Reduction, Growth Inhibition, P. gingivalis ([6]; Compound A 0.31%): −0.05 log | Log Reduction, Growth Inhibition, P. gingivalis ([6]; Compound A 0.62%): 0.35 log | Log Reduction, Growth Inhibition, P. gingivalis ([6]; Compound A 1.25%): 0.44 log | Log Reduction, Growth Inhibition, P. gingivalis ([6]; Compound A 2.50%): 0.11 log | Log Reduction, Growth Inhibition, P. gingivalis ([6]; Compound A 5%): −0.19 log | Log Reduction, Growth Inhibition, P. gingivalis ([6]; Compound A 10%): −0.71 log | Log Reduction, Growth Inhibition, P. gingivalis ([6]; Compound A 20%): 0.36 log | Inhibiting growth of P. gingivalis (in words) [6, 11]: ineffective; also recorded: No inhibition | MIC Cut-off, A.a. [7]: 10% | MBEC Cut-off, P. gingivalis [8]: >20% | MBC Cut-off, P. gingivalis [9]: >20% | Log Reduction, Biofilm, A.a. ([10]; Compound A 0.15%): 0.51 log | Log Reduction, Biofilm, A.a. ([10]; Compound A 0.31%): −0.02 log | Log Reduction, Biofilm, A.a. ([10]; Compound A 0.62%): 0.23 log | Log Reduction, Biofilm, A.a. ([10]; Compound A 1.25%): 0.36 log | Log Reduction, Biofilm, A.a. ([10]; Compound A 2.50%): −0.01 log | Log Reduction, Biofilm, A.a. ([10]; Compound A 5%): 0.39 log | Log Reduction, Biofilm, A.a. ([10]; Compound A 10%): 3.02 log | Log Reduction, Biofilm, A.a. ([10]; Compound A 20%): 3.25 log

— patent publication US20160279043A1, “COMBINATIONS OF N-ACETYL CYSTEINE DERIVATIVES AND CRANBERRY POLYPHENOLS IN COMPOSITIONS AND METHODS FOR PREVENTING AND TREATING PERIODONTAL DISEASES AND PERI-IMPLATITIS” (DENTALMED PHARM HOLDING LTD., priority 2013, published 2016)
